“And” between values parts separate entries of the source, which are not always exact repeats. Equal entries are not always repeated.
Tested on: MALME-3M multicell spheroids, viability
Assay: Anticancer human tumor MALME-3M cell line growth inhibition [TAK];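 also: spheroids exposed to drugs for seven days before readout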;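 as to viability, T/C: 100% = DMSO vehicle control viability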
Details: for viability, T/C: stronger effect = lower value
Procedure, shortened: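 Drug combinations, each paired with TAK-243 or ipatasertib, were tested on multi-cell spheroids of 60% malignant cells, 25% HUVEC and 15% hMSC. Top concentrations were at or near the clinical Cmax (10 microM if undetermined), decreasing by half-log; viability is given as % test/control.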

[1] = curve of first compound, second compound 0.3 µM
[2] = curve of first compound, second compound 0.949 µM
[3] = curve of first compound, second compound 3 µM
[4] = curve of first compound, second compound 9.49 µM
[5] = curve of first compound, second compound 30 µM

Cn1cnc2c(F)c(Nc3ccc(Br)cc3Cl)c(C(=O)NOCCO)cc21 + CC(C)NCC(C(=O)N1CCN(c2ncnc3c2C(C)CC3O)CC1)c1ccc(Cl)cc1
IC50 [1]: 41.1 nM | IC50 [2]: 36 nM | IC50 [3]: 36.5 nM | IC50 [4]: 17.2 nM | IC50 [5]: < 9.49 nM | viability, T/C (second compound 0.3 µM, first compound 0.00949 µM): 92.5% | viability, T/C (second compound 0.3 µM, first compound 0.03 µM): 60.7% | viability, T/C (second compound 0.3 µM, first compound 0.0949 µM): 21% | viability, T/C (second compound 0.3 µM, first compound 0.3 µM): 19% | viability, T/C (second compound 0.3 µM, first compound 0.949 µM): 13.1% | viability, T/C (second compound 0.3 µM, first compound 3 µM): 5.91% | viability, T/C (second compound 0.949 µM, first compound 0.00949 µM): 86.2% | viability, T/C (second compound 0.949 µM, first compound 0.03 µM): 55.6% | viability, T/C (second compound 0.949 µM, first compound 0.0949 µM): 23.5% | viability, T/C (second compound 0.949 µM, first compound 0.3 µM): 16.7% | viability, T/C (second compound 0.949 µM, first compound 0.949 µM): 12% | viability, T/C (second compound 0.949 µM, first compound 3 µM): 4.79% | viability, T/C (second compound 3 µM, first compound 0.00949 µM): 78.3% | viability, T/C (second compound 3 µM, first compound 0.03 µM): 56.6% | viability, T/C (second compound 3 µM, first compound 0.0949 µM): 19.6% | viability, T/C (second compound 3 µM, first compound 0.3 µM): 16.3% | viability, T/C (second compound 3 µM, first compound 0.949 µM): 9.28% | viability, T/C (second compound 3 µM, first compound 3 µM): 3.64% | viability, T/C (second compound 9.49 µM, first compound 0.00949 µM): 66.8% | viability, T/C (second compound 9.49 µM, first compound 0.03 µM): 33.1% | viability, T/C (second compound 9.49 µM, first compound 0.0949 µM): 19.6% | viability, T/C (second compound 9.49 µM, first compound 0.3 µM): 12.1% | viability, T/C (second compound 9.49 µM, first compound 0.949 µM): 7.13% | viability, T/C (second compound 9.49 µM, first compound 3 µM): 2.1% | viability, T/C (second compound 30 µM, first compound 0.00949 µM): 47.3% | viability, T/C (second compound 30 µM, first compound 0.03 µM): 31.6% | viability, T/C (second compound 30 µM, first compound 0.0949 µM): 13.1% | viability, T/C (second compound 30 µM, first compound 0.3 µM): 7.49% | viability, T/C (second compound 30 µM, first compound 0.949 µM): 3.66% | viability, T/C (second compound 30 µM, first compound 3 µM): 0.52%

COC1CC2CCC(C)C(O)(O2)C(=O)C(=O)N2CCCCC2C(=O)OC(C(C)CC2CCC(OCCO)C(OC)C2)CC(=O)C(C)C=C(C)C(O)C(OC)C(=O)C(C)CC(C)C=CC=CC=C1C (configuration not stated) + CC(C)NCC(C(=O)N1CCN(c2ncnc3c2C(C)CC3O)CC1)c1ccc(Cl)cc1
IC50 [1]: > 100 nM | IC50 [2]: 8.97 nM | IC50 [3]: 1.51 nM | IC50 [4]: 0.42 nM | IC50 [5]: < 0.316 nM | viability, T/C (second compound 0.3 µM, first compound 0.000316 µM): 87.7% | viability, T/C (second compound 0.3 µM, first compound 0.001 µM): 69.2% | viability, T/C (second compound 0.3 µM, first compound 0.00316 µM): 64.3% | viability, T/C (second compound 0.3 µM, first compound 0.01 µM): 55.7% | viability, T/C (second compound 0.3 µM, first compound 0.0316 µM): 53.8% | viability, T/C (second compound 0.3 µM, first compound 0.1 µM): 51.3% | viability, T/C (second compound 0.949 µM, first compound 0.000316 µM): 89.9% | viability, T/C (second compound 0.949 µM, first compound 0.001 µM): 71.5% | viability, T/C (second compound 0.949 µM, first compound 0.00316 µM): 49.9% | viability, T/C (second compound 0.949 µM, first compound 0.01 µM): 51.8% | viability, T/C (second compound 0.949 µM, first compound 0.0316 µM): 50% | viability, T/C (second compound 0.949 µM, first compound 0.1 µM): 42.4% | viability, T/C (second compound 3 µM, first compound 0.000316 µM): 70.5% | viability, T/C (second compound 3 µM, first compound 0.001 µM): 55.4% | viability, T/C (second compound 3 µM, first compound 0.00316 µM): 40.7% | viability, T/C (second compound 3 µM, first compound 0.01 µM): 32.1% | viability, T/C (second compound 3 µM, first compound 0.0316 µM): 38% | viability, T/C (second compound 3 µM, first compound 0.1 µM): 29.5% | viability, T/C (second compound 9.49 µM, first compound 0.000316 µM): 54.4% | viability, T/C (second compound 9.49 µM, first compound 0.001 µM): 37.1% | viability, T/C (second compound 9.49 µM, first compound 0.00316 µM): 26% | viability, T/C (second compound 9.49 µM, first compound 0.01 µM): 26.4% | viability, T/C (second compound 9.49 µM, first compound 0.0316 µM): 23.6% | viability, T/C (second compound 9.49 µM, first compound 0.1 µM): 21.8% | viability, T/C (second compound 30 µM, first compound 0.000316 µM): 36.2% | viability, T/C (second compound 30 µM, first compound 0.001 µM): 32.8% | viability, T/C (second compound 30 µM, first compound 0.00316 µM): 20.7% | viability, T/C (second compound 30 µM, first compound 0.01 µM): 22.1% | viability, T/C (second compound 30 µM, first compound 0.0316 µM): 19.9% | viability, T/C (second compound 30 µM, first compound 0.1 µM): 19.1%

CCCS(=O)(=O)Nc1ccc(F)c(C(=O)c2c[nH]c3ncc(-c4ccc(Cl)cc4)cc23)c1F
viability, T/C (compound 0.316 µM): 26.3% and 29.5% | viability, T/C (compound 1 µM): 22.6% and 22.5% | viability, T/C (compound 3.16 µM): 19.4% and 20.7% | viability, T/C (compound 10 µM): 15.4% and 17% | viability, T/C (compound 31.6 µM): 19.3% and 3.37% | viability, T/C (compound 100 µM): 15.6% and 16.2% | IC50 (curve of compound): < 316 nM
